We go through 28 compounds from patent US20080234262A1 (Wyeth, priority 2007, published 2008).

For one experiment, the system named is prostate line LNCap. Put plainly: In vitro cell culture growth assay (MTS), LNCap. The experiment is classed as cell-based, human. The conditions noted are these: Homo sapiens, LNCaP, 72 h, LNCap cells, three days after drug treatment.
Another experiment relates to breast line MDA468. Put plainly: In vitro cell culture growth assay (MTS), MDA468. The conditions noted are these: Homo sapiens, 72 h, MDA468 cells, three days after drug treatment. The format is cell-based, human. How it is done:
Human tumor cell lines used include prostate lines LNCap and PC3MM2, breast lines MDA468, MCF7, renal line HTB44 (A498), colon line HCT116, and ovarian line OVCAR3. Cells were plated in 96-well culture plates. One day following plating, the inhibitors were added to cells. Three days after drug treatment, viable cell densities were determined by metabolic conversion (by viable cells) of the dye MTS, a well established cell proliferation assay. The assays were performed using an assay kit purchased from Promega Corp. (Madison, Wis.) following the protocol supplied with the kit. The MTS assay results were read in a 96-well plate reader by measuring absorbance at 490 nm. The effect of each treatment was calculated as percent of control growth relative to the vehicle-treated cells grown in the same culture plate.

The target of the next experiment is PI3K (Homo sapiens, UniProt P42336). Put plainly: Fluorescence polarization assay for PI3K.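 Also: PI3K kinase reaction on PIP2 with ATP, 30-60 min, product sensed by GST-GRP with red probe in fluorescence polarization (mP), controls without enzyme and at zero time.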 The format is biochemical. The conditions noted are these: PI3Kα; read-out: PI3Kα IC50.
Sequence of PI3K (P42336 whole entry): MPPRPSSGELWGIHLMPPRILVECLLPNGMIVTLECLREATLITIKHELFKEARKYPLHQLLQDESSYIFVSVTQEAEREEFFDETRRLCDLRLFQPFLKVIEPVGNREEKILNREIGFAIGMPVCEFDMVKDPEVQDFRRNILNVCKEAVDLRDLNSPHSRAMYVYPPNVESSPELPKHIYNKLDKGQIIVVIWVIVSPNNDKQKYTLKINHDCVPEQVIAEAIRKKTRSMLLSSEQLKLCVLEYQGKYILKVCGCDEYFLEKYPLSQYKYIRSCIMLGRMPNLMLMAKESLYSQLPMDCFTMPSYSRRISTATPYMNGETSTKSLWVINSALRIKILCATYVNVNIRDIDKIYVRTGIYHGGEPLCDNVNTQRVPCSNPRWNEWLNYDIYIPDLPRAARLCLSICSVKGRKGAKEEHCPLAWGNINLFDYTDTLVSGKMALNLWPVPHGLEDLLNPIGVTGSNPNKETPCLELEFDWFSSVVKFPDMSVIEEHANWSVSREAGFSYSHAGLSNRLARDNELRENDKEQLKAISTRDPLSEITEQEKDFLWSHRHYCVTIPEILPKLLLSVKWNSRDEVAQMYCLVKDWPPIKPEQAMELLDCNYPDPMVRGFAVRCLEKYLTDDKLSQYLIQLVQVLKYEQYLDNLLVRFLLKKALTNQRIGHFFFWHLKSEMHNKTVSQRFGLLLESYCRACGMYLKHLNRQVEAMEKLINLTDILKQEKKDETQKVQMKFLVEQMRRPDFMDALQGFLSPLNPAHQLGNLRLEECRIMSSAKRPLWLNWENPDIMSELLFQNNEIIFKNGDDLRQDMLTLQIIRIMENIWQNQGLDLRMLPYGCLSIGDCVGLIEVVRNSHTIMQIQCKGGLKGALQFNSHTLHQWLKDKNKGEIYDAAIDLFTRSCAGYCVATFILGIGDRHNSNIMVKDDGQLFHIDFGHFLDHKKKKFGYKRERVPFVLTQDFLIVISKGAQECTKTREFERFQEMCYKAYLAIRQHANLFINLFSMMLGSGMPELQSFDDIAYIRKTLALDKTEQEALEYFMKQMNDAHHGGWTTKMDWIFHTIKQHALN
Sequence of PI3K (P27986 whole entry partner): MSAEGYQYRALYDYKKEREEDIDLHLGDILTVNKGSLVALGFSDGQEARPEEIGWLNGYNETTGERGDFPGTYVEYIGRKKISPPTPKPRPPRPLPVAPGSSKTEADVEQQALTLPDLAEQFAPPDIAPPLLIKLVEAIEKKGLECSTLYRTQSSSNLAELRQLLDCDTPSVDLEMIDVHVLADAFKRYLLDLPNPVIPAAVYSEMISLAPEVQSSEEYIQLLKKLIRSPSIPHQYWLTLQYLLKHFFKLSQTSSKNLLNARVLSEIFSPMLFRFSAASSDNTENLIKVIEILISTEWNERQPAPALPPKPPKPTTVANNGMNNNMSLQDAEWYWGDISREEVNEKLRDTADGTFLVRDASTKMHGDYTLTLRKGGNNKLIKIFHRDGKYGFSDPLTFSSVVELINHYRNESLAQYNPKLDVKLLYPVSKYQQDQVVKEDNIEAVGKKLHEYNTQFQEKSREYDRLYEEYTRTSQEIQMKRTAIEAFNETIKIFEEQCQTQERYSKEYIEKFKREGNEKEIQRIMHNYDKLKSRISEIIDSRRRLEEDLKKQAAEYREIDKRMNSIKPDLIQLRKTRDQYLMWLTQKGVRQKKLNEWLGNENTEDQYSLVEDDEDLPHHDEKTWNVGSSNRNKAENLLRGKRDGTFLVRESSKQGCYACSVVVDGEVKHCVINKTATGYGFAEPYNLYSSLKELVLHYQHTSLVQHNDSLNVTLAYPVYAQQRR

Consider `Oc1ccc(-c2nc(N3CCOCC3)c3cnn(C4CCN(Cc5ccccc5)CC4)c3n2)cc1` [Compound 486, 4-[1-(1-benzylpiperidin-4-yl)-4-morpholin-4-yl-1H-pyrazolo[3,4-d]pyrimidin-6-yl]phenol], for which the concentration for half-maximal inhibition (IC50) – broadly, the concentration at which inhibition is half-maximal – with prostate line LNCap was determined as 1400 nM; with breast line MDA468 it was 4000 nM.

For the compound `O=C(Nc1ccc(-c2nc(N3CCOCC3)c3cnn(C4CCN(C(=O)c5cccnc5)CC4)c3n2)cc1)Nc1cccnc1` [Example 302, 1-(4-{4-morpholin-4-yl-1-[1-(pyridin-3-ylcarbonyl)piperidin-4-yl]-1H-pyrazolo[3,4-d]pyrimidin-6-yl}phenyl)-3-pyridin-3-ylurea], the IC50 came to 32 nM on PI3K and 200 nM in the experiment on prostate line LNCap.

As for `COCC(=O)N1CCC(n2ncc3c(N4CCOCC4)nc(-c4cccc(O)c4)nc32)CC1` [Example 30], the IC50 in the experiment with prostate line LNCap came to 500 nM; in the experiment with breast line MDA468, 1400 nM.

Consider `Nc1ccc(-c2nc(N3CCOCC3)c3cnn(-c4ccccc4)c3n2)nc1` [Compound 438, 6-(4-morpholin-4-yl-1-phenyl-1H-pyrazolo[3,4-d]pyrimidin-6-yl)pyridin-3-amine], for which the IC50 in the experiment with prostate line LNCap stood at 7000 nM; with breast line MDA468 it was 60000 nM.

Regarding `CC(=O)Nc1cccc(-c2nc(N3CCOCC3)c3cnn(C4CCN(Cc5ccccc5)CC4)c3n2)c1` [Compound 78], the IC50 is 8000 nM in the experiment with prostate line LNCap and 12000 nM in the experiment on breast line MDA468.

For the compound `CNC(=O)Nc1ccc(-c2nc(N3CCOCC3)c3cnn(C4CCN(C(=O)c5cccc(C)c5)CC4)c3n2)cc1` [Example 366, 1-methyl-3-(4-{1-[1-(3-methylbenzoyl)piperidin-4-yl]-4-morpholin-4-yl-1H-pyrazolo[3,4-d]pyrimidin-6-yl}phenyl)urea], the IC50 on PI3K was 73 nM; with prostate line LNCap, 27 nM.

On to `COC(=O)Nc1ccc(-c2nc(N3CCOCC3)c3cnn(C4CCN(C(=O)c5ccc(C#N)cc5)CC4)c3n2)cc1` [Example 447, methyl (4-{1-[1-(4-cyanobenzoyl)piperidin-4-yl]-4-morpholin-4-yl-1H-pyrazolo[3,4-d]pyrimidin-6-yl}phenyl)carbamate], for which the values for the IC50 with prostate line LNCap and in the experiment on breast line MDA468 were 600 nM and 1200 nM, respectively.

In the case of `O=CNc1ccc(-c2nc(N3CCOCC3)c3cnn(C4CCN(Cc5ccccc5)CC4)c3n2)cc1` [Compound 485, N-{4-[1-(1-benzylpiperidin-4-yl)-4-morpholin-4-yl-1H-pyrazolo[3,4-d]pyrimidin-6-yl]phenyl}formamide], the figures for the IC50 with prostate line LNCap and with breast line MDA468 were 1400 nM and 4500 nM, respectively.

Take `COC(=O)N1CCC(n2ncc3c(N4CCOCC4)nc(-c4ccc(NC(=O)Nc5ccncc5)cc4)nc32)CC1` [Compound 738, methyl 4-(4-morpholin-4-yl-6-{4-[(pyridin-4-ylcarbamoyl)amino]phenyl}-1H-pyrazolo[3,4-d]pyrimidin-1-yl)piperidine-1-carboxylate]: the IC50 with prostate line LNCap and with breast line MDA468 was below 27 nM each time.

With `c1ccc(-n2ncc3c(N4CCOCC4)nc(-c4ccc5[nH]ccc5c4)nc32)cc1` [Compound 110], the IC50 came to 2000 nM in the experiment with prostate line LNCap and 5500 nM in the experiment with breast line MDA468.

In the case of `Oc1ccc(-c2nc(N3CCOCC3)c3cnn(C4CCN(Cc5ccccc5)CC4)c3n2)cc1` [Compound 232, 4-[1-(1-benzylpiperidin-4-yl)-4-morpholin-4-yl-1H-pyrazolo[3,4-d]pyrimidin-6-yl]phenol], the 50% inhibitory concentration (IC50) with prostate line LNCap is 1400 nM; in the experiment with breast line MDA468 it was 4000 nM.

For `c1cc2cc(-c3nc(N4CCOCC4)c4cnn([C@@H]5CCCNC5)c4n3)ccc2[nH]1` [Compound 168], the IC50 in the experiment with prostate line LNCap stood at 3400 nM; in the experiment with breast line MDA468, 10000 nM.

With `CNC(=O)Nc1ccc(-c2nc(N3CCOCC3)c3cnn(C4CCN(C(=O)c5ccccc5)CC4)c3n2)cc1` [Example 336, 1-{4-[1-(1-benzoylpiperidin-4-yl)-4-morpholin-4-yl-1H-pyrazolo[3,4-d]pyrimidin-6-yl]phenyl}-3-methylurea], the IC50 at PI3K came out at 70 nM; in the experiment on prostate line LNCap, 27 nM.

For the compound `CCNC(=O)Nc1ccc(-c2nc(N3CCOCC3)c3cnn(C4CCN(Cc5cccnc5)CC4)c3n2)cc1` [Example 318, 1-ethyl-3-(4-{4-morpholin-4-yl-1-[1-(pyridin-3-ylmethyl)piperidin-4-yl]-1H-pyrazolo[3,4-d]pyrimidin-6-yl}phenyl)urea], the IC50 was determined as 187 nM at PI3K and 27 nM in the experiment with prostate line LNCap.

Regarding `O=C(NCCF)Nc1ccc(-c2nc(N3CCOCC3)c3cnn(C4CCN(Cc5cccnc5)CC4)c3n2)cc1` [Example 315, 1-(2-fluoroethyl)-3-(4-{4-morpholin-4-yl-1-[1-(pyridin-3-ylmethyl)piperidin-4-yl]-1H-pyrazolo[3,4-d]pyrimidin-6-yl}phenyl)urea], the IC50 was determined as 338 nM at PI3K and 27 nM in the experiment on prostate line LNCap.

Take `O=C(Nc1ccncc1)Nc1ccc(-c2nc(N3CCOCC3)c3cnn(C4CCN(C(=O)c5cccnc5)CC4)c3n2)cc1` [Example 344, 1-(4-{4-morpholin-4-yl-1-[1-(pyridin-3-ylcarbonyl)piperidin-4-yl]-1H-pyrazolo[3,4-d]pyrimidin-6-yl}phenyl)-3-pyridin-4-ylurea]: the IC50 on PI3K is 15 nM; in the experiment with prostate line LNCap it was 27 nM.

In the case of `O=C(Nc1ccc(-c2nc(N3CCOCC3)c3cnn(C4CCN(C(=O)c5ccccc5)CC4)c3n2)cc1)Nc1cccnc1` [Example 379, 1-{4-[1-(1-benzoylpiperidin-4-yl)-4-morpholin-4-yl-1H-pyrazolo[3,4-d]pyrimidin-6-yl]phenyl}-3-pyridin-3-ylurea], the results for the IC50 on PI3K and in the experiment with prostate line LNCap were 35 nM and 27 nM, respectively.

Take `O=C(Nc1ccc(-c2nc(N3CCOCC3)c3cnn(C4CCN(C(=O)c5cccnc5)CC4)c3n2)cc1)Nc1cccs1` [Example 413, 1-(4-{4-morpholin-4-yl-1-[1-(pyridin-3-ylcarbonyl)piperidin-4-yl]-1H-pyrazolo[3,4-d]pyrimidin-6-yl}phenyl)-3-(2-thienyl)urea]: the IC50 amounted to 15 nM on PI3K and 35 nM in the experiment with prostate line LNCap.

In turn, `O=C(Nc1ccc(-c2nc(N3CCOCC3)c3cnn(C4CCN(Cc5ccccc5)CC4)c3n2)cc1)Nc1ncc[nH]1` [Example 326, 1-{4-[1-(1-benzylpiperidin-4-yl)-4-morpholin-4-yl-1H-pyrazolo[3,4-d]pyrimidin-6-yl]phenyl}-3-(1H-imidazol-2-yl)urea] showed a concentration for half-maximal inhibition (IC50) in the experiment on breast line MDA468 of 3500 nM.

In the case of `CNC(=O)Nc1ccc(-c2nc(N3CCOCC3)c3cnn(C4CCN(C(=O)c5ccccc5Cl)CC4)c3n2)cc1` [Example 355, 1-(4-{1-[1-(2-chlorobenzoyl)piperidin-4-yl]-4-morpholin-4-yl-1H-pyrazolo[3,4-d]pyrimidin-6-yl}phenyl)-3-methylurea], the IC50 is 79 nM at PI3K and 27 nM in the experiment on prostate line LNCap.

Compound `CNC(=O)Nc1ccc(-c2nc(N3CCOCC3)c3cnn(C4CCN(C(=O)OC(C)C)CC4)c3n2)cc1` [Compound 752, isopropyl 4-(6-{4-[(methylcarbamoyl)amino]phenyl}-4-morpholin-4-yl-1H-pyrazolo[3,4-d]pyrimidin-1-yl)piperidine-1-carboxylate] yielded an IC50 with breast line MDA468 of 53 nM.

As for `CC(C)OC(=O)N1CCC(n2ncc3c(N4CCOCC4)nc(-c4ccc(NC(=O)NCCF)cc4)nc32)CC1` [Compound 833, isopropyl 4-[6-(4-{[(2-fluoroethyl)carbamoyl]amino}phenyl)-4-morpholin-4-yl-1H-pyrazolo[3,4-d]pyrimidin-1-yl]piperidine-1-carboxylate], the IC50 with breast line MDA468 is 250 nM.

For `O=C(Nc1ccc(-c2nc(N3CCOCC3)c3cnn(C4CCN(Cc5cccnc5)CC4)c3n2)cc1)Nc1cccnc1` [Example 314, 1-(4-{4-morpholin-4-yl-1-[1-(pyridin-3-ylmethyl)piperidin-4-yl]-1H-pyrazolo[3,4-d]pyrimidin-6-yl}phenyl)-3-pyridin-3-ylurea], the IC50 on PI3K was found to be 20 nM; in the experiment on prostate line LNCap it was 27 nM.

In the experiment on breast line MDA468, `CC(C)OC(=O)N1CCC(n2ncc3c(N4CCOCC4)nc(-c4ccc(NC(=O)NC5CC5)cc4)nc32)CC1` [Compound 835, isopropyl 4-(6-{4-[(cyclopropylcarbamoyl)amino]phenyl}-4-morpholin-4-yl-1H-pyrazolo[3,4-d]pyrimidin-1-yl)piperidine-1-carboxylate] had an IC50 of 320 nM.

In turn, `CNC(=O)Nc1ccc(-c2nc(N3CCOCC3)c3cnn(C4CCN(C(=O)OC)CC4)c3n2)cc1` [Compound 721, methyl 4-(6-{4-[(methylcarbamoyl)amino]phenyl}-4-morpholin-4-yl-1H-pyrazolo[3,4-d]pyrimidin-1-yl)piperidine-1-carboxylate] displayed an IC50 in the experiment with breast line MDA468 of 80 nM.

`COC(=O)N1CCC(n2ncc3c(N4CCOCC4)nc(-c4ccc(NC(=O)Nc5ccc(CCO)cc5)cc4)nc32)CC1` [Compound 913, methyl 4-{6-[4-({[4-(2-hydroxyethyl)phenyl]carbamoyl}amino)phenyl]-4-morpholin-4-yl-1H-pyrazolo[3,4-d]pyrimidin-1-yl}piperidine-1-carboxylate] showed an IC50 with breast line MDA468 of 1.3 nM.

Regarding `O=C(NCCF)Nc1ccc(-c2nc(N3CCOCC3)c3cnn(C4CCN(C(=O)c5ccccc5)CC4)c3n2)cc1` [Example 380, 1-{4-[1-(1-benzoylpiperidin-4-yl)-4-morpholin-4-yl-1H-pyrazolo[3,4-d]pyrimidin-6-yl]phenyl}-3-(2-fluoroethyl)urea], the results for the IC50 at PI3K and with prostate line LNCap were 454 nM and 27 nM, respectively.

Regarding `CCNC(=O)Nc1ccc(-c2nc(N3CCOCC3)c3cnn(C4CCN(C(=O)c5ccccc5)CC4)c3n2)cc1` [Example 381, 1-{4-[1-(1-benzoylpiperidin-4-yl)-4-morpholin-4-yl-1H-pyrazolo[3,4-d]pyrimidin-6-yl]phenyl}-3-ethylurea], the IC50 amounted to 355 nM at PI3K and 27 nM with prostate line LNCap.
